# Results as given in patent US9738591B2, “Antimicrobial compounds” (priority 2009, dated 2017).
# “And” between values parts separate entries of the source, which are not always exact repeats. Identical values can stand only once.
# How the values were obtained:
# [1] = system: Staphylococcus aureus NCTC 6571/ATCC 9144; assay: Disk diffusion; details: for Zone of inhibition, S. aureus NCTC 6571: analogues in DMSO, protocol of Example 3; for Zone of Inhibition: S. aureus NCTC 6571; for zones of inhibition with S aureus NCTC6571: applied at 10 mg/ml
# [2] = system: Listeria monocytogenes NCTC 7973; assay: Disk diffusion; details: L. monocytogenes NCTC 7973
# [3] = system: Citrobacter freundii NCTC 9750/ATCC 8090; assay: Disk diffusion; details: C. freundii NCTC 9750
# [4] = system: Staphylococcus xylosus ATCC 29971; assay: Disk diffusion; details: S. xylosus ATCC 29971
# [5] = system: A. calcoaceticus ATCC 15308; assay: Disk diffusion
# [6] = system: Staphylococcus aureus (methicillin resistant) NCTC 10442; assay: Disk diffusion; details: S. aureus NCTC 10442
# [7] = system: Staphylococcus epidermidis ATCC 12228; assay: Disk diffusion; details: S. epidermidis ATCC 1228
# [8] = system: Aeromonas hydrophila NCTC 8049/ATCC 7966; assay: Disk diffusion; details: A. hydrophila NCTC 8049
# [9] = system: V. cholerae non-01 clinical; assay: Disk diffusion
# [10] = system: Streptococcus pneumoniae ATCC 49619; assay: Disk diffusion; details: S. pneumoniae ATCC 49619
# [11] = system: E. coli NCTC 10418; assay: Disk diffusion; details: for Zone of Inhibition: E. coli NCTC 10418; for Zone of inhibition, E. coli NCTC 10418: analogues in DMSO, protocol of Example 3
# [12] = system: Bacillus cereus ATCC 13061; assay: Disk diffusion; details: B. cereus ATCC 13061
# [13] = system: K. pneumoniae NCTC 10896; assay: Disk diffusion
# [14] = system: C. albicans ATCC 90028; assay: Disk diffusion
# [15] = system: Shigella flexneri NCTC 8192; assay: Disk diffusion; assay type: cell-based; details: S. flexneri NCTC 8192
# Method: Plates were incubated at 35° C.
# [16] = system: Salmonella enterica subsp. enterica serovar Typhimurium ATCC 13311; assay: Disk diffusion; details: S. typhimurium ATCC 13311
# [17] = system: Yersinia enterocolitica clinical 26609; assay: Disk diffusion; details: Y. enterocolitica clinical 26609
# [18] = system: Enterococcus faecalis NCTC 775; assay: Disk diffusion; details: E. faecalis NCTC 775
# [19] = system: Streptococcus pyogenes NCTC 8191; assay: Disk diffusion; details: S. pyogenes NCTC 8191
# [20] = system: Micrococcus luteus ATCC 10240; assay: Disk diffusion; details: M. luteus ATCC 10240
# [21] = system: Escherichia coli NCTC 10538; assay: Disk diffusion; details: E. coli NCTC 10538
# [22] = system: Bacillus subtilis ATCC 6633; assay: Disk diffusion; details: B. subtilis ATCC 6633
# [23] = system: Moraxella catarrhalis NCTC 3625; assay: Disk diffusion; details: M. catarrhalis NCTC 3625
# [24] = system: Stenotrophomonas maltophilia ATCC 13637; assay: Disk diffusion; details: S. maltophilia ATCC 13637
# [25] = system: Pseudomonas aeruginosa NCTC 10662; assay: Disk diffusion; details: P. aeruginosa NCTC 10662
# [26] = system: Proteus mirabilis NCTC 10975; assay: Disk diffusion; details: P. mirabilis NCTC 10975
# [27] = system: S. typhimurium TA98, TA100 and TA1535; assay: Ames Test for mutagenic activity, no metabolic activation; details: 5 μg/plate, duplicate plates
smiles,measurement,setting,value
CN(C)c1ccc(/C=C/c2cc(/C=C/c3ccc(N(C)C)cc3)cc(/C=C/c3ccc(N(C)C)cc3)c2)cc1 [TSB009],"Zone of inhibition, S. aureus NCTC 6571",[1],0 mm
O=C(O)c1ccc(CCc2ccc(CCc3ccc(C(=O)O)cc3)c(CCc3ccc(C(=O)O)cc3)c2)cc1 [TSB068],Zone of Inhibition,[2],15 mm
same,Zone of Inhibition,[3],0 mm
same,Zone of Inhibition,[4],0 mm
same,Zone of Inhibition,[5],0 mm
same,Zone of Inhibition,[6],0 mm
same,Zone of Inhibition,[7],0 mm
same,Zone of Inhibition,[8],7 mm
same,Zone of Inhibition,[9],0 mm
same,Zone of Inhibition,[10],23 mm
same,Zone of Inhibition,[11],0 mm
same,Zone of Inhibition,[1],8 mm
same,Zone of Inhibition,[12],0 mm
same,Zone of Inhibition,[13],0 mm
same,Zone of Inhibition,[14],0 mm
same,Zone of Inhibition,[15],0 mm
same,Zone of Inhibition,[16],0 mm
same,Zone of Inhibition,[17],0 mm
same,Zone of Inhibition,[18],0 mm
same,Zone of Inhibition,[19],20 mm
same,Zone of Inhibition,[20],8 mm
same,Zone of Inhibition,[21],0 mm
same,Zone of Inhibition,[22],0 mm
same,Zone of Inhibition,[23],32 mm
same,Zone of Inhibition,[24],0 mm
same,Zone of Inhibition,[25],0 mm
same,Zone of Inhibition,[26],0 mm
N#Cc1ccc(/C=C/c2cc(/C=C/c3ccc(C#N)cc3)cc(/C=C/c3ccc(C#N)cc3)c2)cc1 [TSB063],"Zone of inhibition, E. coli NCTC 10418",[11],0 mm
same,"Zone of inhibition, S. aureus NCTC 6571",[1],0 mm
CCCCOC(=O)/C=C/c1ccc(-c2nc(-c3ccc(/C=C/C(=O)OCCCC)cc3)nc(-c3ccc(/C=C/C(=O)OCCCC)cc3)n2)cc1 [TCT003],"Zone of inhibition, E. coli NCTC 10418",[11],0 mm
same,"Zone of inhibition, S. aureus NCTC 6571",[1],0 mm
COc1ccc(/C=C/c2cc(/C=C/c3ccc(OC)cc3)cc(/C=C/c3ccc(OC)cc3)c2)cc1 [TSB019],"Zone of inhibition, E. coli NCTC 10418",[11],0 mm
same,"Zone of inhibition, S. aureus NCTC 6571",[1],0 mm
O=C(O)c1ccc(CCc2cc(CCc3ccc(C(=O)O)cc3)c(CCc3ccc(C(=O)O)cc3)cc2CCc2ccc(C(=O)O)cc2)cc1 [QSB002],zones of inhibition with S aureus NCTC6571,[1],no zones of inhibition
O=C(O)c1ccc(/C=C/c2ccc(/C=C/c3ccc(C(=O)O)cc3)cc2)cc1 [DSB001],zones of inhibition with S aureus NCTC6571,[1],no zones of inhibition
CC(=O)Oc1ccc(/C=C/c2cc(/C=C/c3ccc(OC(C)=O)cc3)cc(/C=C/c3ccc(OC(C)=O)cc3)c2)cc1 [TSB023],"Zone of inhibition, E. coli NCTC 10418",[11],0 mm
same,"Zone of inhibition, S. aureus NCTC 6571",[1],0 mm
O=C(O)c1ccc(/C=C/c2cc(/C=C/c3ccc(C(=O)O)cc3)c(/C=C/c3ccc(C(=O)O)cc3)cc2/C=C/c2ccc(C(=O)O)cc2)cc1 [QSB001],Zone of Inhibition,[2],0 mm
same,Zone of Inhibition,[3],8.5 mm
same,Zone of Inhibition,[4],0 mm
same,Zone of Inhibition,[5],0 mm
same,Zone of Inhibition,[6],0 mm
same,Zone of Inhibition,[7],0 mm
same,Zone of Inhibition,[8],7 mm
same,Zone of Inhibition,[9],8 mm
same,Zone of Inhibition,[10],9 mm
same,Zone of Inhibition,[11],7 mm
same,Zone of Inhibition,[1],8.5 mm
same,Zone of Inhibition,[12],0 mm
same,Zone of Inhibition,[13],8 mm
same,Zone of Inhibition,[14],0 mm
same,Zone of Inhibition,[15],0 mm
same,Zone of Inhibition,[16],8.5 mm
same,Zone of Inhibition,[17],7.5 mm
same,Zone of Inhibition,[18],0 mm
same,Zone of Inhibition,[19],8 mm
same,Zone of Inhibition,[20],0 mm
same,Zone of Inhibition,[21],7.5 mm
same,Zone of Inhibition,[22],0 mm
same,Zone of Inhibition,[23],18 mm
same,Zone of Inhibition,[24],8 mm
same,Zone of Inhibition,[25],0 mm
same,Zone of Inhibition,[26],0 mm
C(=C\c1cc(/C=C/c2ccncc2)cc(/C=C/c2ccncc2)c1)/c1ccncc1 [TSB053],"Zone of inhibition, S. aureus NCTC 6571",[1],0 mm
CC(C)Oc1ccc(/C=C/c2cc(/C=C/c3ccc(OC(C)C)c(OC(C)C)c3)cc(/C=C/c3ccc(OC(C)C)c(OC(C)C)c3)c2)cc1OC(C)C [TSB041],"Zone of inhibition, E. coli NCTC 10418",[11],0 mm
same,"Zone of inhibition, S. aureus NCTC 6571",[1],0 mm
COc1cc(/C=C/c2cc(/C=C/c3cc(OC)c(OC)c(OC)c3)cc(/C=C/c3cc(OC)c(OC)c(OC)c3)c2)cc(OC)c1OC [TSB049],"Zone of inhibition, E. coli NCTC 10418",[11],0 mm
same,"Zone of inhibition, S. aureus NCTC 6571",[1],0 mm
O=C(O)c1ccc(CCc2ccc(CCc3ccc(C(=O)O)cc3)cc2)cc1 [DSD002],zones of inhibition with S aureus NCTC6571,[1],no zones of inhibition
"[N-]=[N+]=[N-] [sodium azide, reference compound]","Number of colonies, Positive Control","[27]; TA100, negative control 113, 96",350 and 360
same,"Number of colonies, Positive Control","[27]; TA1535, negative control 28, 29",600
Cc1ccc(/C=C/c2cc(/C=C/c3ccc(C)cc3)cc(/C=C/c3ccc(C)cc3)c2)cc1 [TSB037],"Zone of inhibition, E. coli NCTC 10418",[11],0 mm
same,"Zone of inhibition, S. aureus NCTC 6571",[1],0 mm
O=C(O)c1ccc(/C=C/c2ccc(/C=C/c3ccc(C(=O)O)cc3)c(/C=C/c3ccc(C(=O)O)cc3)c2)cc1 [TSB067],Zone of Inhibition,[2],12 mm
same,Zone of Inhibition,[3],0 mm
same,Zone of Inhibition,[4],0 mm
same,Zone of Inhibition,[5],0 mm
same,Zone of Inhibition,[6],12 mm
same,Zone of Inhibition,[7],11 mm
same,Zone of Inhibition,[8],7 mm
same,Zone of Inhibition,[9],0 mm
same,Zone of Inhibition,[10],16 mm
same,Zone of Inhibition,[11],6.5 mm
same,Zone of Inhibition,[1],14 mm
same,Zone of Inhibition,[12],0 mm
same,Zone of Inhibition,[13],0 mm
same,Zone of Inhibition,[14],0 mm
same,Zone of Inhibition,[15],0 mm
same,Zone of Inhibition,[16],0 mm
same,Zone of Inhibition,[17],0 mm
same,Zone of Inhibition,[18],0 mm
same,Zone of Inhibition,[19],14 mm
same,Zone of Inhibition,[20],20 mm
same,Zone of Inhibition,[21],7.5 mm
same,Zone of Inhibition,[22],0 mm
same,Zone of Inhibition,[23],32 mm
same,Zone of Inhibition,[24],0 mm
same,Zone of Inhibition,[25],0 mm
same,Zone of Inhibition,[26],0 mm
O=C(O)c1ccc(CCc2cccc(CCc3ccc(C(=O)O)cc3)c2)cc1 [DSB004],zones of inhibition with S aureus NCTC6571,[1],no zones of inhibition
O=C(O)/C=C/c1ccc(-c2cc(-c3ccc(/C=C/C(=O)O)cc3)cc(-c3ccc(/C=C/C(=O)O)cc3)c2)cc1 [TCB001],"Zone of inhibition, S. aureus NCTC 6571",[1],11 mm
CCCCOC(=O)/C=C/c1ccc(-c2cc(-c3ccc(/C=C/C(=O)OCCCC)cc3)cc(-c3ccc(/C=C/C(=O)OCCCC)cc3)c2)cc1 [TCB003],"Zone of inhibition, S. aureus NCTC 6571",[1],0 mm
CC(=O)c1ccc(/C=C/c2cc(/C=C/c3ccc(C(C)=O)cc3)cc(/C=C/c3ccc(C(C)=O)cc3)c2)cc1 [TSB025],"Zone of inhibition, E. coli NCTC 10418",[11],0 mm
same,"Zone of inhibition, S. aureus NCTC 6571",[1],0 mm
C(=C\c1cc(/C=C/c2ccc(-c3nnn[nH]3)cc2)cc(/C=C/c2ccc(-c3nnn[nH]3)cc2)c1)/c1ccc(-c2nnn[nH]2)cc1 [TSB065],"Zone of inhibition, E. coli NCTC 10418",[11],0 mm
same,"Zone of inhibition, S. aureus NCTC 6571",[1],14 mm
O=C(O)/C=C/c1cc(/C=C/C(=O)O)cc(/C=C/C(=O)O)c1 [TAB001],"Zone of inhibition, S. aureus NCTC 6571",[1],0 mm
